Test results published in patent US20260027116A1, “Methods of Treating Chronic Graft-Versus-Host Disease Following Allogeneic Hematopoietic Stem Cell Transplantation” (Kadmon Corporation, LLC, priority 2022, published 2026).

Columns and labels:
[1] = molecular target: human serum albumin (Homo sapiens, UniProt P02768); test: protein binding in vitro; assay type: in vitro ADME
[2] = tested on: cGVHD symptom burden; test: Example 1: Lee Symptom Scale (LSS) score; assay type: in vivo, human
Procedure: Lee Symptom Scale (LSS) summary score measures the effect on patients' functioning and well-being. The Lee Symptom Scale is a 30-item scale developed to measure the symptoms of cGVHD and is described in Lec S J, Cook E F, Soiffer R, Antin J H. Development and validation of a scale to measure symptoms of chronic graft-versushost disease. Biol Blood Marrow Transplant 2002; 8:444-452.
All responses were assessed by the investigators.
Change From Baseline in Overall Score on Lee cGvHD Symptom Scale at Specified Time Points. Lee cGVHD symptom scale, a patient-reported symptom scale used to measure symptom burden and has 7 subscales (Skin, Eyes and Mouth, Breathing, Eating and Digestion, Muscles and Joints, Energy, and Mental and Emotional) with ratings as follows: 0—Not at all, 1—Slightly, 2—Moderately, 3—Quite a bit, 4—Extremely, with lower values representing better outcome. Score for each subscale was normalized to a score ranged from 0 to 100, where higher score=worse symptoms. An overall score was calculated as average of these 7 subscales. EOT visit was performed within 3 days after the participant's last dose of study drug. Baseline value was defined as valid and last non-missing value obtained within 28 days prior to participant receiving first study medication. […] Analysis was performed on mITT population. Here, ‘number analyzed’=participants with available data for each specified category. Here, ‘0’ in the number analyzed field signifies that none of the participants were available for the analysis at the specified time points.

Sequence of human serum albumin (P02768 25-609): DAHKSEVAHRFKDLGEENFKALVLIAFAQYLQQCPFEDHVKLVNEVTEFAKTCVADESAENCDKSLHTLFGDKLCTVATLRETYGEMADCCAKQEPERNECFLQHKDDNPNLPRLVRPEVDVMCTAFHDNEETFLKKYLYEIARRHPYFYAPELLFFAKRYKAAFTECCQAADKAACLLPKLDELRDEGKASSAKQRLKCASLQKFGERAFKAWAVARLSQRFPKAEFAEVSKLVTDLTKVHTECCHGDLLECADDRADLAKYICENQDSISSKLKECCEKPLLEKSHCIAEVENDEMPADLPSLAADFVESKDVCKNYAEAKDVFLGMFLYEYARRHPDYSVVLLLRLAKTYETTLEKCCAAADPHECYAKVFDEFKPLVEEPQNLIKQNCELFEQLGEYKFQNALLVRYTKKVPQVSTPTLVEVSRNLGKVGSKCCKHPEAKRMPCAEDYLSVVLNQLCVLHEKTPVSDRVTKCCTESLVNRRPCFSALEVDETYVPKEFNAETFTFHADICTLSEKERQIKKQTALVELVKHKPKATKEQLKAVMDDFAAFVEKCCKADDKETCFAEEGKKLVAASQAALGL

## CC(C)NC(=O)COc1cccc(-c2nc(Nc3ccc4[nH]ncc4c3)c3ccccc3n2)c1 [Belumosudil, 2-{3-[4-(1H-indazol-5-ylamino)-2-quinazolinyl]phenoxy}-N-(propan-2-yl) acetamide]
[1]
  binding to human serum albumin: 99.9%
[2]; Cohort 1 200 mg QD
  LSS improvement, nonresponder, n/N: 1/6
  LSS improvement, responder, n/N: 8/11
[2]; Cohort 1: 200 mg QD, Cycle 3, Day 1
  Change From Baseline in Overall Score on Lee cGvHD Symptom Scale, Mean (Standard Deviation): −3.0 (8.5) score on a scale
[2]; Cohort 1: 200 mg QD, Cycle 5, Day 1
  Change From Baseline in Overall Score on Lee cGvHD Symptom Scale, Mean (Standard Deviation): −3.7 (11.0) score on a scale
[2]; Cohort 1: 200 mg QD, Cycle 7, Day 1
  Change From Baseline in Overall Score on Lee cGvHD Symptom Scale, Mean (Standard Deviation): −4.9 (8.4) score on a scale
[2]; Cohort 1: 200 mg QD, Cycle 9, Day 1
  Change From Baseline in Overall Score on Lee cGvHD Symptom Scale, Mean (Standard Deviation): −3.7 (10.7) score on a scale
[2]; Cohort 1: 200 mg QD, Cycle 11, Day 1
  Change From Baseline in Overall Score on Lee cGvHD Symptom Scale, Mean (Standard Deviation): −3.4 (11.5) score on a scale
[2]; Cohort 1: 200 mg QD, Cycle 12, Day 1
  Change From Baseline in Overall Score on Lee cGvHD Symptom Scale, Mean (Standard Deviation): −3.9 (8.1) score on a scale
[2]; Cohort 1: 200 mg QD, Cycle 13, Day 1
  Change From Baseline in Overall Score on Lee cGvHD Symptom Scale, Mean (Standard Deviation): −5.8 (14.7) score on a scale
[2]; Cohort 1: 200 mg QD, Cycle 14, Day 1
  Change From Baseline in Overall Score on Lee cGvHD Symptom Scale, Mean (Standard Deviation): −1.6 (17.1) score on a scale
[2]; Cohort 1: 200 mg QD, Cycle 15, Day 1
  Change From Baseline in Overall Score on Lee cGvHD Symptom Scale, Mean (Standard Deviation): −4.8 (15.8) score on a scale
[2]; Cohort 1: 200 mg QD, Cycle 16, Day 1
  Change From Baseline in Overall Score on Lee cGvHD Symptom Scale, Mean (Standard Deviation): −4.6 (16.1) score on a scale
[2]; Cohort 1: 200 mg QD, Cycle 27, Day 1
  Change From Baseline in Overall Score on Lee cGvHD Symptom Scale, Mean (Standard Deviation): −3.5 (25.3) score on a scale
[2]; Cohort 1: 200 mg QD, Cycle 28, Day 1
  Change From Baseline in Overall Score on Lee cGvHD Symptom Scale, Mean (Standard Deviation): 4.4 (13.4) score on a scale
[2]; Cohort 1: 200 mg QD, Cycle 29, Day 1
  Change From Baseline in Overall Score on Lee cGvHD Symptom Scale, Mean (Standard Deviation): −2.8 (23.7) score on a scale
[2]; Cohort 1: 200 mg QD, Cycle 30, Day 1
  Change From Baseline in Overall Score on Lee cGvHD Symptom Scale, Mean (Standard Deviation): 9.0 (7.5) score on a scale
[2]; Cohort 1: 200 mg QD, Cycle 31, Day 1
  Change From Baseline in Overall Score on Lee cGvHD Symptom Scale, Mean (Standard Deviation): −4.8 (27.9) score on a scale
[2]; Cohort 1: 200 mg QD, Cycle 32, Day 1
  Change From Baseline in Overall Score on Lee cGvHD Symptom Scale, Mean (Standard Deviation): 10.3 (6.9) score on a scale
[2]; Cohort 1: 200 mg QD, Cycle 33, Day 1
  Change From Baseline in Overall Score on Lee cGvHD Symptom Scale, Mean (Standard Deviation): 0.5 (20.7) score on a scale
[2]; Cohort 1: 200 mg QD, Cycle 34, Day 1
  Change From Baseline in Overall Score on Lee cGvHD Symptom Scale, Mean (Standard Deviation): 13.5 (3.6) score on a scale
[2]; Cohort 1: 200 mg QD, Cycle 35, Day 1
  Change From Baseline in Overall Score on Lee cGvHD Symptom Scale, Mean (Standard Deviation): −2.5 (23.3) score on a scale
[2]; Cohort 1: 200 mg QD, Cycle 36, Day 1
  Change From Baseline in Overall Score on Lee cGvHD Symptom Scale, Mean (Standard Deviation): 7.5 (6.4) score on a scale
[2]; Cohort 1: 200 mg QD, Cycle 37, Day 1
  Change From Baseline in Overall Score on Lee cGvHD Symptom Scale, Mean (Standard Deviation): −5.3 (29.0) score on a scale
[2]; Cohort 1: 200 mg QD, Cycle 38, Day 1
  Change From Baseline in Overall Score on Lee cGvHD Symptom Scale, Mean (Standard Deviation): 9.1 (5.2) score on a scale
[2]; Cohort 1: 200 mg QD, Cycle 39, Day 1
  Change From Baseline in Overall Score on Lee cGvHD Symptom Scale, Mean (Standard Deviation): −6.2 (25.9) score on a scale
[2]; Cohort 1: 200 mg QD, Cycle 40, Day 1
  Change From Baseline in Overall Score on Lee cGvHD Symptom Scale, Mean (Standard Deviation): 2.7 (—) score on a scale
[2]; Cohort 1: 200 mg QD, Cycle 41, Day 1
  Change From Baseline in Overall Score on Lee cGvHD Symptom Scale, Mean (Standard Deviation): −25.7 (—) score on a scale
[2]; Cohort 1: 200 mg QD, Cycle 42, Day 1
  Change From Baseline in Overall Score on Lee cGvHD Symptom Scale, Mean (Standard Deviation): 4.6 (—) score on a scale
[2]; Cohort 1: 200 mg QD, Cycle 43, Day 1
  Change From Baseline in Overall Score on Lee cGvHD Symptom Scale, Mean (Standard Deviation): −20.4 (—) score on a scale
[2]; Cohort 1: 200 mg QD, Cycle 44, Day 1
  Change From Baseline in Overall Score on Lee cGvHD Symptom Scale, Mean (Standard Deviation): 4.3 (—) score on a scale
[2]; Cohort 1: 200 mg QD, Cycle 46, Day 1
  Change From Baseline in Overall Score on Lee cGvHD Symptom Scale, Mean (Standard Deviation): 4.6 (—) score on a scale
[2]; Cohort 1: 200 mg QD, Cycle 47, Day 1
  Change From Baseline in Overall Score on Lee cGvHD Symptom Scale, Mean (Standard Deviation): −6.8 (—) score on a scale
[2]; Cohort 1: 200 mg QD, Cycle 48, Day 1
  Change From Baseline in Overall Score on Lee cGvHD Symptom Scale, Mean (Standard Deviation): 2.4 (—) score on a scale
[2]; Cohort 1: 200 mg QD, Cycle 50, Day 1
  Change From Baseline in Overall Score on Lee cGvHD Symptom Scale, Mean (Standard Deviation): 4.5 (—) score on a scale
[2]; Cohort 1: 200 mg QD, Cycle 51, Day 1
  Change From Baseline in Overall Score on Lee cGvHD Symptom Scale, Mean (Standard Deviation): −12.0 (—) score on a scale
[2]; Cohort 1: 200 mg QD, Cycle 52, Day 1
  Change From Baseline in Overall Score on Lee cGvHD Symptom Scale, Mean (Standard Deviation): 6.0 (—) score on a scale
[2]; Cohort 1: 200 mg QD, Cycle 53, Day 1
  Change From Baseline in Overall Score on Lee cGvHD Symptom Scale, Mean (Standard Deviation): −19.2 (—) score on a scale
[2]; Cohort 1: 200 mg QD, Cycle 54, Day 1
  Change From Baseline in Overall Score on Lee cGvHD Symptom Scale, Mean (Standard Deviation): 4.9 (—) score on a scale
[2]; Cohort 1: 200 mg QD, Cycle 55, Day 1
  Change From Baseline in Overall Score on Lee cGvHD Symptom Scale, Mean (Standard Deviation): −16.8 (—) score on a scale
[2]; Cohort 1: 200 mg QD, Cycle 56, Day 1
  Change From Baseline in Overall Score on Lee cGvHD Symptom Scale, Mean (Standard Deviation): 1.8 (—) score on a scale
[2]; Cohort 1: 200 mg QD, Cycle 57, Day 1
  Change From Baseline in Overall Score on Lee cGvHD Symptom Scale, Mean (Standard Deviation): −17.6 (—) score on a scale
[2]; Cohort 1: 200 mg QD, Cycle 58, Day 1
  Change From Baseline in Overall Score on Lee cGvHD Symptom Scale, Mean (Standard Deviation): 5.4 (—) score on a scale
[2]; Cohort 1: 200 mg QD, Cycle 59, Day 1
  Change From Baseline in Overall Score on Lee cGvHD Symptom Scale, Mean (Standard Deviation): −12.7 (—) score on a scale
[2]; Cohort 1: 200 mg QD, Cycle 60, Day 1
  Change From Baseline in Overall Score on Lee cGvHD Symptom Scale, Mean (Standard Deviation): 4.2 (—) score on a scale
[2]; Cohort 1: 200 mg QD, Cycle 61, Day 1
  Change From Baseline in Overall Score on Lee cGvHD Symptom Scale, Mean (Standard Deviation): −19.3 (—) score on a scale
[2]; Cohort 1: 200 mg QD, Cycle 62, Day 1
  Change From Baseline in Overall Score on Lee cGvHD Symptom Scale, Mean (Standard Deviation): 4.4 (—) score on a scale
[2]; Cohort 1: 200 mg QD, Cycle 63, Day 1
  Change From Baseline in Overall Score on Lee cGvHD Symptom Scale, Mean (Standard Deviation): −18.0 (—) score on a scale
[2]; Cohort 1: 200 mg QD, Cycle 67, Day 1
  Change From Baseline in Overall Score on Lee cGvHD Symptom Scale, Mean (Standard Deviation): −21.9 (—) score on a scale
[2]; Cohort 1: 200 mg QD, EOT
  Change From Baseline in Overall Score on Lee cGvHD Symptom Scale, Mean (Standard Deviation): −4.3 (11.7) score on a scale
[2]; Cohort 2 200 mg BID
  LSS improvement, nonresponder, n/N: 4/5
  LSS improvement, responder, n/N: 3/11
[2]; Cohort 2: 200 mg BID, Cycle 3, Day 1
  Change From Baseline in Overall Score on Lee cGvHD Symptom Scale, Mean (Standard Deviation): 0.5 (7.3) score on a scale
[2]; Cohort 2: 200 mg BID, Cycle 5, Day 1
  Change From Baseline in Overall Score on Lee cGvHD Symptom Scale, Mean (Standard Deviation): −3.7 (7.0) score on a scale
[2]; Cohort 2: 200 mg BID, Cycle 7, Day 1
  Change From Baseline in Overall Score on Lee cGvHD Symptom Scale, Mean (Standard Deviation): −2.2 (8.8) score on a scale
[2]; Cohort 2: 200 mg BID, Cycle 8, Day 1
  Change From Baseline in Overall Score on Lee cGvHD Symptom Scale, Mean (Standard Deviation): −7.1 (10.1) score on a scale
